Earlier results as cited in patent US10966960B2 (Treeway TW001 B.V., priority 2017, dated 2021).
Values after ≈ are worked out from the molar mass of the structure shown.

Details: 25° C.

- solubility in water: ~1850 µg/mL (≈ 10.6 mM)
Structure (SMILES): CC1=NN(c2ccccc2)C(=O)C1 [edaravone, 3-methyl-1-phenyl-2-pyrazolin-5-one]
